Earlier results, collected in patent US11980685B1, “Liquid pharmaceutical formulations of tafamidis” (TaP Pharmaceuticals, AG, priority 2022, dated 2024).
Values after ≈ are worked out from the molar mass of the structure shown. Read-outs that look alike come from different tables or passages of the source.

Key:
[1] = 20 mg in 3.0 mL, equilibrated 1 h, UHPLC

Solubility (pH 2.6, 0.02M Acetate-phosphate buffer) [µg/mL]	Solubility (pH 5.3, 0.02M Acetate-phosphate buffer) [µg/mL]	Solubility (pH 6.3, 0.02M Acetate-phosphate buffer) [µg/mL]	Solubility (pH 7.0, 0.02M Acetate-phosphate buffer) [µg/mL]	Solubility (pH 7.6, 0.02M Acetate-phosphate buffer as printed) [µg/mL]	Solubility (pH 7.8, 0.02M Acetate-phosphate buffer) [µg/mL]	Solubility (pH 8.0, 0.02M Acetate-phosphate buffer) [µg/mL]	Solubility classification per the BCS criteria (statement of the NDA 212161 applicant on Table F)	Concentration of tafamidis in saturated solution (solubility) ([1]; FaSSIF) [µg/mL]	Concentration of tafamidis in saturated solution (solubility) ([1]; FeSSIF) [µg/mL]	Concentration of tafamidis in saturated solution (solubility) ([1]; SGF) [µg/mL]	SMILES
<2	<2	2 (≈ 6.49 µM)	15.8 (≈ 51.3 µM)	17.5 (≈ 56.8 µM)	72.8 (≈ 236 µM)	140 (≈ 454 µM)	poorly soluble drug substance				O=C(O)c1ccc2nc(-c3cc(Cl)cc(Cl)c3)oc2c1 [Tafamidis, 2-(3,5-dichlorophenyl)-1,3-benzoxazole-6-carboxylic acid]
								9.0	0.6	1.5	O=C(O)c1ccc2nc(-c3cc(Cl)cc(Cl)c3)oc2c1 [′441 patent's tafamidis crystal form 1]
